# In US6737383B1, “Herbicidal oxadiazolidines” (priority 1999, dated 2004):
# Key:
# cocklebur = assay: Test B pre/postemergence cocklebur; format: in vivo, Xanthium strumarium
# Outline: (§1)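 Response is a visual 0-to-10 score relative to untreated plants, where 0 means no effect and 10 means complete control, taken twelve to sixteen days after application. Treatments went onto soil at planting and onto foliage of 1- to 4-leaf plants, using a surfactant-containing non-phytotoxic solvent.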
# duck salad = assay: Test B flood test duck salad; format: in vivo, Heteranthera limosa; settings: for Plant response rating, Ducksalad (0 to 10 scale, 0 is no effect, 10 is complete control) / Ducksalad plant response rating (0 to 10 scale, 0 is no effect, 10 is complete control): visual evaluation after twelve to sixteen days; for Ducksalad plant response rating (0 to 10 scale, 0 is no effect, 10 is complete control): under heading Pre-emergence
# Outline: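 Flood test on plants grown to the 2-leaf stage; treated plants kept in greenhouse twelve to sixteen days, then visually rated against controls on a 0 (no effect) to 10 (complete control) scale.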
# velvetleaf = assay: Test B pre/postemergence velvetleaf; format: in vivo, Abutilon theophrasti; settings: for Velvetleaf plant response rating (0 to 10 scale): 0 is no effect
# Outline: as §1
# soybean = assay: Test B pre/postemergence soybean; format: in vivo, Glycine max
# Outline: as §1
# [1] = Postemergence, Rate 62 g/ha, scale 0 to 10, 0 is no effect, 10 is complete control
# [2] = Postemergence, Rate 125 g/ha, scale of 0 to 10 where 0 is no effect and 10 is complete control
# [3] = Preemergence, Rate 62 g/ha, scale 0 to 10 (0 no effect, 10 complete control)
# [4] = Preemergence, Rate 125 g/ha, scale 0 to 10 (0 no effect, 10 complete control)
# [5] = Preemergence, Rate 250 g/ha, scale of 0 to 10 where 0 is no effect and 10 is complete control
# [6] = Preemergence, Rate 500 g/ha, scale 0 (no effect) to 10 (complete control)
# [7] = Rate 500 g/ha, Postemergence, scale 0 to 10, 0 no effect, 10 complete control
# [8] = Postemergence (flood test species), Rate 125 g/ha, scale of 0 to 10 where 0 is no effect and 10 is complete control
# [9] = Rate 500 g/ha, listed under Postemergence (flood test species), scale 0 to 10, 0 no effect, 10 complete control
# [10] = Preemergence, Rate 125 g/ha, 10 is complete control
# [11] = Rate 250 g/ha, Postemergence, scale 0 to 10, 0 is no effect, 10 is complete control
# [12] = Preemergence, Rate 250 g/ha, scale 0 to 10, 0 is no effect, 10 is complete control
# [13] = Preemergence, Rate 500 g/ha, scale 0 to 10 (0 no effect, 10 complete control)
# [14] = Rate 62 g/ha, Postemergence, scale of 0 to 10 where 0 is no effect and 10 is complete control
# [15] = Postemergence, Rate 250 g/ha, scale of 0 to 10, 0 is no effect, 10 is complete control
# [16] = Postemergence, Rate 500 g/ha, scale of 0 to 10 where 0 is no effect and 10 is complete control
# [17] = Preemergence, Rate 125 g/ha, scale of 0 to 10 where 0 is no effect and 10 is complete control
# [18] = Preemergence, Rate 250 g/ha, scale 0 to 10 (0 no effect, 10 complete control)
# [19] = Preemergence, Rate 500 g/ha, scale of 0 to 10 where 0 is no effect and 10 is complete control
# [20] = Rate 62 g/ha, flood test species, Pre-emergence
# [21] = Rate 125 g/ha, flood test species
# [22] = Rate 250 g/ha, Pre-emergence (flood test species), scale 0 to 10, 0 is no effect, 10 is complete control
# [23] = Postemergence, Rate 1000 g/ha, scale 0 to 10 (0 no effect, 10 complete control)
# [24] = Rate 125 g/ha, Postemergence, scale of 0 to 10 where 0 is no effect and 10 is complete control
# [25] = Rate 125 g/ha, Preemergence, scale of 0 to 10 where 0 is no effect and 10 is complete control
# [26] = Rate 250 g/ha, Postemergence, scale of 0 to 10 where 0 is no effect and 10 is complete control
# [27] = Rate 1000 g/ha, Preemergence, scale 0 to 10 (0 no effect, 10 complete control)
# [28] = Rate 500 g/ha, Pre-emergence, flood test species, scale 0 to 10 (0 no effect, 10 complete control)
# [29] = Postemergence, Rate 250 g/ha, scale 0 to 10
# [30] = Preemergence, Rate 62 g/ha, scale of 0 to 10 where 0 is no effect and 10 is complete control
# [31] = Preemergence, Rate 500 g/ha, scale 0 to 10, 0 is no effect, 10 is complete control
# [32] = Rate 62 g/ha, Postemergence, scale 0 to 10 (0 no effect, 10 complete control)
# [33] = Rate 125 g/ha, Postemergence, scale 0 to 10, 0 is no effect, 10 is complete control
smiles,measurement,setting,value
Cc1nn(C)c(Cl)c1-n1c(=O)on(C(=O)N(c2ccc(F)cc2F)C(C)C)c1=O [Compound 96],Cocklebur plant response rating,cocklebur; [1],0
same,Cocklebur plant response rating,cocklebur; [2],0
same,Cocklebur plant response rating,"cocklebur; Postemergence, Rate 250 g/ha, scale 0 to 10, 0 no effect, 10 complete control",0
same,Cocklebur plant response rating,cocklebur; [3],0
same,"Plant response rating, Cocklebur",cocklebur; [4],0
same,"Plant response rating, Cocklebur",cocklebur; [5],0
same,Cocklebur plant response rating,cocklebur; [6],0
same,Cocklebur plant response rating,cocklebur; [7],2
same,Ducksalad plant response rating,duck salad; [8],0
same,Ducksalad plant response rating,duck salad; [1],0
same,Ducksalad plant response rating,duck salad; [9],0
same,Ducksalad plant response rating,"duck salad; flood test, listed under Postemergence, Rate 250 g/ha, scale 0 to 10, 0 no effect, 10 complete control",0
same,Velvetleaf plant response rating,velvetleaf; [1],0
same,Velvetleaf plant response rating,velvetleaf; [2],0
same,Velvetleaf plant response rating,velvetleaf; [3],0
same,Velvetleaf plant response rating (0 to 10 scale),velvetleaf; [10],0
same,"Plant response rating, Velvetleaf",velvetleaf; [5],0
same,Velvetleaf plant response rating,velvetleaf; [6],0
same,"Plant response rating, Velvetleaf",velvetleaf; [11],0
same,Velvetleaf plant response rating,velvetleaf; [7],0
same,Soybean plant response rating,soybean; [1],1
same,Soybean plant response rating,soybean; [2],1
same,Soybean plant response rating,soybean; [3],0
same,"Plant response rating, Soybean",soybean; [4],0
same,"Plant response rating, Soybean",soybean; [5],0
same,Soybean plant response rating,soybean; [6],0
same,"Plant response rating, Soybean",soybean; [11],1
same,Soybean plant response rating,soybean; [7],1
CC(C)N(C(=O)n1oc(=O)n(-c2ccnn2C)c1=O)c1ccc(F)cc1 [Compound 124],Cocklebur plant response rating,cocklebur; [2],0
same,Cocklebur plant response rating,cocklebur; [3],0
same,Cocklebur plant response rating,cocklebur; [12],0
same,Cocklebur plant response rating,cocklebur; [13],0
same,Cocklebur plant response rating,cocklebur; [14],0
same,"Plant response rating, Cocklebur",cocklebur; [11],0
same,Cocklebur plant response rating,cocklebur; [7],0
same,Ducksalad plant response rating,duck salad; [8],0
same,Ducksalad plant response rating,"duck salad; Rate 62 g/ha, Postemergence section, flood test species, scale of 0 to 10 where 0 is no effect and 10 is complete control",0
same,"Plant response rating, Ducksalad","duck salad; Rate 250 g/ha, Postemergence (flood test), scale 0 to 10, 0 is no effect, 10 is complete control",0
same,Ducksalad plant response rating,"duck salad; Rate 250 g/ha, headed Pre-emergence (flood test species), scale 0 to 10 (0 no effect, 10 complete control)",0
same,"Plant response rating, Ducksalad","duck salad; Rate 500 g/ha, headed Pre-emergence (flood test species), scale 0 to 10 (0 no effect, 10 complete control)",0
same,Ducksalad plant response rating,duck salad; [9],0
same,Ducksalad plant response rating,"duck salad; Rate 1000 g/ha, Pre-emergence (as headed), scale 0 to 10",0
same,Ducksalad plant response rating,"duck salad; Rate 2000 g/ha, Pre-emergence (as headed), scale 0 to 10",0
same,Velvetleaf plant response rating,velvetleaf; [2],0
same,Velvetleaf plant response rating,velvetleaf; [3],0
same,Velvetleaf plant response rating (0 to 10 scale),velvetleaf; [10],0
same,Velvetleaf plant response rating,velvetleaf; [12],0
same,Velvetleaf plant response rating,velvetleaf; [13],0
same,Velvetleaf plant response rating,velvetleaf; [14],0
same,"Plant response rating, Velvetleaf",velvetleaf; [11],0
same,Velvetleaf plant response rating,velvetleaf; [7],0
same,Soybean plant response rating,soybean; [2],3
same,Soybean plant response rating,soybean; [3],0
same,Soybean plant response rating (0 to 10 scale),"soybean; Preemergence, Rate 125 g/ha, 0 is no effect, 10 is complete control",0
same,Soybean plant response rating,soybean; [12],0
same,Soybean plant response rating,soybean; [13],0
same,Soybean plant response rating,soybean; [14],0
same,"Plant response rating, Soybean",soybean; [11],4
same,Soybean plant response rating,soybean; [7],5
COCCn1c(=O)on(C(=O)N(c2ccc(F)cc2)C(C)C)c1=O [Compound 627],"Plant response rating, Cocklebur",cocklebur; [1],0
same,"Plant response rating, Cocklebur",cocklebur; [2],0
same,Cocklebur plant response rating,cocklebur; [15],0
same,"Plant response rating, Cocklebur",cocklebur; [16],3
same,Cocklebur plant response rating,cocklebur; [3],6
same,Cocklebur plant response rating,cocklebur; [17],6
same,"Plant response rating, Cocklebur",cocklebur; [18],6
same,"Plant response rating, Cocklebur",cocklebur; [19],7
same,"Plant response rating, Ducksalad (0 to 10 scale, 0 is no effect, 10 is complete control)",duck salad; [20],0
same,"Ducksalad plant response rating (0 to 10 scale, 0 is no effect, 10 is complete control)",duck salad; [21],0
same,Ducksalad plant response rating,duck salad; [22],0
same,Ducksalad plant response rating,"duck salad; Rate 500 g/ha, Pre-emergence section of Table B, 0 to 10 scale (0 no effect, 10 complete control)",1
same,"Plant response rating, Velvetleaf",velvetleaf; [1],3
same,"Plant response rating, Velvetleaf",velvetleaf; [2],4
same,Velvetleaf plant response rating,velvetleaf; [15],8
same,Velvetleaf plant response rating,velvetleaf; [3],7
same,Velvetleaf plant response rating,velvetleaf; [17],8
same,"Plant response rating, Velvetleaf",velvetleaf; [18],10
same,"Plant response rating, Velvetleaf",velvetleaf; [19],10
same,"Plant response rating, Soybean",soybean; [1],2
same,"Plant response rating, Soybean",soybean; [2],4
same,Soybean plant response rating,soybean; [15],4
same,Soybean plant response rating,soybean; [3],0
same,Soybean plant response rating,soybean; [17],0
same,"Plant response rating, Soybean",soybean; [18],0
same,"Plant response rating, Soybean",soybean; [19],5
CCOC(=O)C(C)N(C(=O)n1oc(=O)n(C2CCCCC2)c1=O)c1ccc(F)cc1 (stereo not shown) [Compound 280],Cocklebur plant response rating,cocklebur; [23],0
same,Cocklebur plant response rating,cocklebur; [5],0
same,"Plant response rating, Cocklebur",cocklebur; [19],0
same,Cocklebur plant response rating,cocklebur; [24],0
same,Cocklebur plant response rating,cocklebur; [25],0
same,"Plant response rating, Cocklebur",cocklebur; [26],0
same,Cocklebur plant response rating,cocklebur; [7],0
same,"Plant response rating, Cocklebur",cocklebur; [27],0
same,Ducksalad plant response rating,"duck salad; Pre-emergence, Rate 1000 g/ha, scale 0 to 10 (0 no effect, 10 complete control)",0
same,Ducksalad plant response rating,"duck salad; Rate 125 g/ha, Pre-emergence, flood test species, scale 0 to 10 where 0 is no effect and 10 is complete control",0
same,Ducksalad plant response rating,"duck salad; Rate 250 g/ha, Pre-emergence, flood-test species, scale 0 to 10, 0 is no effect, 10 is complete control",0
same,Ducksalad plant response rating,duck salad; [28],0
same,Velvetleaf plant response rating,velvetleaf; [23],0
same,Velvetleaf plant response rating,velvetleaf; [5],0
same,"Plant response rating, Velvetleaf",velvetleaf; [19],0
same,Velvetleaf plant response rating,velvetleaf; [24],0
same,Velvetleaf plant response rating,velvetleaf; [25],0
same,"Plant response rating, Velvetleaf",velvetleaf; [26],0
same,Velvetleaf plant response rating,velvetleaf; [7],0
same,"Plant response rating, Velvetleaf",velvetleaf; [27],0
same,Soybean plant response rating,soybean; [23],5
same,Soybean plant response rating,soybean; [5],0
same,"Plant response rating, Soybean",soybean; [19],0
same,Soybean plant response rating,soybean; [24],1
same,Soybean plant response rating,soybean; [25],0
same,"Plant response rating, Soybean",soybean; [26],3
same,Soybean plant response rating,soybean; [7],5
same,"Plant response rating, Soybean",soybean; [27],0
CC(C)N(C(=O)n1oc(=O)n(CO)c1=O)c1ccc(F)cc1 [Compound 470],Cocklebur plant response rating,cocklebur; [29],0
same,Cocklebur plant response rating,cocklebur; [16],0
same,"Plant response rating, Cocklebur",cocklebur; [30],0
same,"Plant response rating, Cocklebur",cocklebur; [17],0
same,Cocklebur plant response rating,cocklebur; [12],0
same,Cocklebur plant response rating,cocklebur; [31],0
same,Cocklebur plant response rating,cocklebur; [32],0
same,Cocklebur plant response rating,cocklebur; [33],0
same,"Plant response rating, Ducksalad (0 to 10 scale, 0 is no effect, 10 is complete control)",duck salad; [20],0
same,"Ducksalad plant response rating (0 to 10 scale, 0 is no effect, 10 is complete control)",duck salad; [21],0
same,Ducksalad plant response rating,duck salad; [22],0
same,Ducksalad plant response rating,duck salad; [28],0
same,Velvetleaf plant response rating,velvetleaf; [29],0
same,"Plant response rating, Velvetleaf",velvetleaf; [30],0
same,"Plant response rating, Velvetleaf",velvetleaf; [17],0
same,Velvetleaf plant response rating,velvetleaf; [12],0
same,Velvetleaf plant response rating,velvetleaf; [31],0
same,Velvetleaf plant response rating,velvetleaf; [32],0
same,Velvetleaf plant response rating,velvetleaf; [33],0
same,Soybean plant response rating,soybean; [29],1
same,"Plant response rating, Soybean",soybean; [30],0
same,"Plant response rating, Soybean",soybean; [17],0
same,Soybean plant response rating,soybean; [12],0
same,Soybean plant response rating,soybean; [31],0
same,Soybean plant response rating,soybean; [32],0
same,Soybean plant response rating,soybean; [33],0
